Laboratory results published in US20240109934A1, “ANTIBIOTICS WITH IMPROVED DRUG RESISTANCE PROFILE” (priority 2021, published 2024).
Converted amounts (≈) assume the structure as drawn. Where two headings read alike, the source gives them in different places.

Tests used:
S. aureus ATCC 29213 [1] = assay: MIC by micro-dilution broth method (CLSI); format: cell-based; settings: for Antibacterial activity relative to FA: S. aureus ATCC 29213 MIC; for MIC: Staphylococcus aureus, ATCC29213, WT S. aureus ATCC 29213, n = 3, read-out: MIC Without Human Serum
[2] = test system: human foreskin fibroblasts (HFF-1); assay: Cell viability, Alamar Blue assay; format: cell-based; settings: 72 h incubation, error SEM n = 2, read-out: IC50, Mammalian Toxicity in HFF-1
Protocol: Cell Culture. HFF-1 cells were obtained from ATCC. HFF-1 cells were grown in DMEM with 15% fetal bovine serum (Gemini Benchmark, Cat #100-106), 100 U/mL penicillin, and 100 μg/mL streptomycin. All cells were cultured at 37° C. in a 5% CO2 environment. Media was prepared by the University of Illinois School of Chemical Sciences Cell Media Facility.
Cell Viability. Cells were harvested, seeded in a 96 well-plate and allowed to adhere. Cells were treated with investigational compounds in DMSO (1% final concentration). Cells were incubated for 72 h before viability was assessed by the Alamar Blue Assay. Raptinal ([…]) was used as a dead control.

[3] = Mouse liver microsome stability assay; format: in vitro ADME; settings: 3 h at 37° C., LC-MS/MS, ± SEM of 3 biological replicates
Protocol: Mouse Liver Microsome Stability Assay. A mixture of PBS (pH 7.4), NADPH regenerating system solution A (Corning Life Sciences), and NADPH regenerating system solution B (Corning Life Sciences) was incubated at 37° C. in a shaking incubator for 5 min. Next, compound was added in DMSO (final concentration 50 μM, 0.5% DMSO) before ice-cold mouse liver microsomes (Thermo Fisher, male CD-1 mice, pooled) were added (final protein concentration of 1 mg/mL). An aliquot was immediately removed, quenched with an equal volume of 100 μM internal standard and centrifuged at 13,000 rcf for 3 min. The reactions were incubated at 37° C. in a shaking incubator for 3 h. A second aliquot was removed and quenched. Samples were analyzed with the 5500 QTRAP LC/MS/MS system (Sciex, Framingham, MA) in Metabolomics Lab of Roy J. Carver Biotechnology Center, University of Illinois at Urbana-Champaign. Software Analyst 1.6.2 was used for data acquisition and analysis. The 1200 series HPLC system (Agilent Technologies, Santa Clara, CA) includes a degasser, an autosampler, and a binary pump. The LC separation was performed on an Agilent Sb-Aq column (4.6×50 mm, […]) with mobile phase A (0.1% formic acid in water) and mobile phase B (0.1% formic acid in acetonitrile). The flow rate was 0.3 mL/min. The linear gradient was as follows: 0-3 min, 100% A; 10-16 min, 5% A; 16.5-22 min, 100% A. The autosampler was set at 10° C. The injection volume was 1 μL. Mass spectra were acquired under both positive (ion spray voltage was +5500 V) and negative (ion spray voltage was −4500 V) electrospray ionization (ESI). The source temperature was 450° C. The curtain gas, ion source gas 1, and ion source gas 2 were 33, 65, and 60 psi, respectively. Multiple reaction monitoring (MRM) was used for quantitation.

S. aureus ATCC 29213 [4] = assay: Resistance frequency, large inoculum method; format: cell-based; settings: head-to-head with FA, 2×-32× the MIC
Protocol: Selection of Resistant Mutants. Resistant mutants were selected via the large inoculum method. Briefly, S. aureus ATCC 29213 (1×10^9 CFU) were plated on 100 mm plates of LB agar containing 4, 2, 1, 0.5, and 0.25 μg/mL.

S. aureus 29213 = assay: MIC shift with 50% human serum; format: cell-based; settings: S. aureus 29213, 50% human serum vs none
Protocol: Antimicrobial Susceptibility Tests. Susceptibility testing was performed in biological triplicate, using the micro-dilution broth method as outlined by the Clinical and Laboratory Standards Institute. […] Human serum (Ultrafiltrate, unspecified gender, 30K Dalton membrane filtered) was purchased from BioIVT (Hicksville, NY).

[5] = test system: multidrug-resistant clinical isolates of E. faecium; assay: MIC against multidrug-resistant clinical isolates of E. faecium; format: cell-based
[6] = test system: multidrug-resistant clinical isolates of S. aureus; assay: MIC against multidrug-resistant clinical isolates of S. aureus; format: cell-based; settings: Staphylococcus aureus

## CC(=O)O[C@H]1C[C@@]2(C)[C@@H](C[C@@H](O)[C@H]3[C@@]4(C)CC[C@@H](O)[C@@H](C)[C@@H]4CC[C@@]32C)/C1=C(\CCC=C(Cl)Cl)C(=O)O [Compound 15, (Z)-2-((3R,4S,5S,8S,9S,10S,11R,13R,14S,16S)-16-acetoxy-3,11-dihydroxy-4,8,10,14-tetramethylhexadecahydro-17H-cyclopenta[a]phenanthren-17-ylidene)-6,6-dichlorohex-5-enoic acid]
S. aureus ATCC 29213 [1]
  Antibacterial activity relative to FA: modest decreases in potency relative to FA

## CC(=O)O[C@H]1C[C@@]2(C)[C@@H](C[C@@H](O)[C@H]3[C@@]4(C)CC[C@@H](O)[C@@H](C)[C@@H]4CC[C@@]32C)/C1=C(\CCC=C(Br)Br)C(=O)O [Compound 16, (Z)-2-((3R,4S,5S,8S,9S,10S,11R,13R,14S,16S)-16-acetoxy-3,11-dihydroxy-4,8,10,14-tetramethylhexadecahydro-17H-cyclopenta[a]phenanthren-17-ylidene)-6,6-dibromohex-5-enoic acid]
[2]
  IC50: 75 ± 3 µM
[2]; Homo sapiens, HFF-1, 72 h
  IC50: > 50 µM
[3]
  Metabolic Stability in Mouse Liver Microsomes (percent remaining): 88 ± 2%
S. aureus ATCC 29213 [4]
  Resistance frequency relative to FA: worse resistance frequency relative to FA
S. aureus ATCC 29213 [1]
  Antibacterial activity relative to FA: equipotent activity to FA
  MIC: 0.125 µg/mL (≈ 0.193 µM)
S. aureus 29213
  Fold Change Increase in MIC with 50% Human Serum: 32X

## CC(=O)O[C@H]1C[C@@]2(C)[C@@H](C[C@@H](O)[C@H]3[C@@]4(C)CC[C@@H](O)[C@@H](C)[C@@H]4CC[C@@]32C)/C1=C(\CCC=C(I)I)C(=O)O [Compound 17, (Z)-2-((3R,4S,5S,8S,9S,10S,11R,13R,14S,16S)-16-acetoxy-3,11-dihydroxy-4,8,10,14-tetramethylhexadecahydro-17H-cyclopenta[a]phenanthren-17-ylidene)-6,6-diiodohex-5-enoic acid]
S. aureus ATCC 29213 [1]
  Antibacterial activity relative to FA: modest decreases in potency relative to FA

## CC(=O)O[C@H]1C[C@@]2(C)[C@@H](C[C@@H](O)[C@H]3[C@@]4(C)CC[C@@H](O)[C@@H](C)[C@@H]4CC[C@@]32C)/C1=C(\CCC=C(F)F)C(=O)O [Compound 19, (Z)-2-((3R,4S,5S,8S,9S,10S,11R,13R,14S,16S)-16-acetoxy-3,11-dihydroxy-4,8,10,14-tetramethylhexadecahydro-17H-cyclopenta[a]phenanthren-17-ylidene)-6,6-difluorohex-5-enoic acid]
S. aureus ATCC 29213 [1]
  Antibacterial activity relative to FA: modest decreases in potency relative to FA

## C=CCC/C(C(=O)O)=C1/[C@@H](OC(C)=O)C[C@@]2(C)[C@H]1C[C@@H](O)[C@H]1[C@@]3(C)CC[C@@H](O)[C@@H](C)[C@@H]3CC[C@@]12C [Compound 21]
S. aureus ATCC 29213 [1]
  Antibacterial activity relative to FA: modest decreases in potency relative to FA

## CC(=O)O[C@H]1C[C@@]2(C)[C@@H](C[C@@H](O)[C@H]3[C@@]4(C)CC[C@@H](O)[C@@H](C)[C@@H]4CC[C@@]32C)/C1=C(\CCC=C1CCOCC1)C(=O)O [Compound 27, (Z)-2-((3R,4S,5S,8S,9S,10S,11R,13R,14S,16S)-16-acetoxy-3,11-dihydroxy-4,8,10,14-tetramethylhexadecahydro-17H-cyclopenta[a]phenanthren-17-ylidene)-5-(tetrahydro-4H-pyran-4-ylidene)pentanoic acid]
[3]
  Metabolic Stability in Mouse Liver Microsomes (percent remaining): 86 ± 5%
S. aureus ATCC 29213 [4]
  Resistance frequency relative to FA: worse resistance frequency relative to FA
S. aureus ATCC 29213 [1]
  Antibacterial activity relative to FA: equipotent activity to FA
  MIC: 0.125 µg/mL (≈ 0.224 µM)
S. aureus 29213
  Fold Change Increase in MIC with 50% Human Serum: 32X

## CC(=O)O[C@H]1C[C@@]2(C)[C@@H](C[C@@H](O)[C@H]3[C@@]4(C)CC[C@@H](O)[C@@H](C)[C@@H]4CC[C@@]32C)/C1=C(\CCCC(C)C)C(=O)O [Compound 28, (Z)-2-((3R,4S,5S,8S,9S,10S,11R,13R,14S,16S)-16-acetoxy-3,11-dihydroxy-4,8,10,14-tetramethylhexadecahydro-17H-cyclopenta[a]phenanthren-17-ylidene)-6-methylheptanoic acid]
S. aureus ATCC 29213 [1]
  Antibacterial activity relative to FA: modest decreases in potency relative to FA

## CN[C@H](CC(C)C)C(=O)N[C@H]1C(=O)N[C@@H](CC(N)=O)C(=O)N[C@H]2C(=O)N[C@H]3C(=O)N[C@H](C(=O)N[C@H](C(=O)O)c4cc(O)cc(O)c4-c4cc3ccc4O)[C@H](O)c3ccc(c(Cl)c3)Oc3cc2cc(c3O[C@@H]2O[C@H](CO)[C@@H](O)[C@H](O)[C@H]2O[C@H]2C[C@](C)(N)[C@H](O)[C@H](C)O2)Oc2ccc(cc2Cl)[C@H]1O [Vancomycin, vancomycin]
[5]; Enterococcus faecium, E. faecium AR0572 (CDC)
  MIC: 512 µg/mL (≈ 353 µM)
[5]; Enterococcus faecium, E. faecium AR0574 (CDC)
  MIC: 0.5 µg/mL (≈ 0.345 µM)
[5]; Enterococcus faecium, E. faecium AR0575 (CDC)
  MIC: 512 µg/mL (≈ 353 µM)
[5]; Enterococcus faecium, E. faecium AR0576 (CDC)
  MIC: 1 µg/mL (≈ 0.69 µM)
[5]; Enterococcus faecium, E. faecium AR0578 (CDC)
  MIC: 0.5 µg/mL (≈ 0.345 µM)
[5]; Enterococcus faecium, E. faecium AR0579 (CDC)
  MIC: 0.5 µg/mL (≈ 0.345 µM)
[5]; VRE with high levels of vancomycin resistance
  MIC: 512 µg/mL (≈ 353 µM)
[6]; NRS3, S. aureus NRS3 (NARSA)
  MIC: 4 µg/mL (≈ 2.76 µM)
[6]; NRS4, S. aureus NRS4 (NARSA)
  MIC: 4 µg/mL (≈ 2.76 µM)
[6]; NRS17, S. aureus NRS17 (NARSA)
  MIC: 8 µg/mL (≈ 5.52 µM)
[6]; NRS18, S. aureus NRS18 (NARSA)
  MIC: 4 µg/mL (≈ 2.76 µM)
[6]; NRS21, S. aureus NRS21 (NARSA)
  MIC: 4 µg/mL (≈ 2.76 µM)
[6]; NRS22, S. aureus NRS22 (NARSA)
  MIC: 4 µg/mL (≈ 2.76 µM)
[6]; NRS23, S. aureus NRS23 (NARSA)
  MIC: 4 µg/mL (≈ 2.76 µM)
[6]; NRS24, S. aureus NRS24 (NARSA)
  MIC: 4 µg/mL (≈ 2.76 µM)
[6]; NRS26, S. aureus NRS26 (NARSA)
  MIC: 2 µg/mL (≈ 1.38 µM)
[6]; NRS27, S. aureus NRS27 (NARSA)
  MIC: 4 µg/mL (≈ 2.76 µM)
[6]; NRS29, S. aureus NRS29 (NARSA)
  MIC: 2 µg/mL (≈ 1.38 µM)
[6]; NRS51, S. aureus NRS51 (NARSA)
  MIC: 4 µg/mL (≈ 2.76 µM)
[6]; NRS68, S. aureus NRS68 (NARSA)
  MIC: 4 µg/mL (≈ 2.76 µM)
[6]; NRS73, S. aureus NRS73 (NARSA)
  MIC: 4 µg/mL (≈ 2.76 µM)
[6]; NRS74, S. aureus NRS74 (NARSA)
  MIC: 8 µg/mL (≈ 5.52 µM)
[6]; NRS76, S. aureus NRS76 (NARSA)
  MIC: 4 µg/mL (≈ 2.76 µM)
[6]; NRS77, S. aureus NRS77 (NARSA), no noted resistance
  MIC: 1 µg/mL (≈ 0.69 µM)
[6]; NRS382, S. aureus NRS382 (NARSA)
  MIC: 2 µg/mL (≈ 1.38 µM)
[6]; NRS383, S. aureus NRS383 (NARSA)
  MIC: 0.5 µg/mL (≈ 0.345 µM)
[6]; NRS384, S. aureus NRS384 (NARSA)
  MIC: 1 µg/mL (≈ 0.69 µM)
[6]; S. aureus AR0561 (CDC)
  MIC: 1 µg/mL (≈ 0.69 µM)
[6]; S. aureus AR0562 (CDC)
  MIC: 2 µg/mL (≈ 1.38 µM)
[6]; S. aureus AR0563 (CDC)
  MIC: 1 µg/mL (≈ 0.69 µM)
[6]; S. aureus AR0564 (CDC)
  MIC: 2 µg/mL (≈ 1.38 µM)
[6]; S. aureus AR0565 (CDC)
  MIC: 2 µg/mL (≈ 1.38 µM)
[6]; S. aureus AR0566 (CDC)
  MIC: 0.5 µg/mL (≈ 0.345 µM)
[6]; S. aureus AR0567 (CDC)
  MIC: 1 µg/mL (≈ 0.69 µM)
[6]; S. aureus AR0568 (CDC)
  MIC: 0.5 µg/mL (≈ 0.345 µM)
[6]; S. aureus AR0570 (CDC)
  MIC: 1 µg/mL (≈ 0.69 µM)
